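Values below derive from 48-hour exposures of cells grown in 96-well plates, with endpoints linearly interpolated between the two concentrations bracketing the appropriate inhibition level. GI50 marks 50% less growth. TGI: concentration producing complete growth inhibition.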
Key:
Assay in all cases: DTP human tumour cell line panel, 48 h
786-0 renal = tested on: 786-0 renal
CAKI-1 renal = tested on: CAKI-1 renal
HS 578T breast = tested on: HS 578T breast
LOX IMVI melanoma = tested on: LOX IMVI melanoma
NCI-H226 lung = tested on: NCI-H226 lung
OVCAR-5 ovarian = tested on: OVCAR-5 ovarian
RPMI-8226 leukemia = tested on: RPMI-8226 leukemia
A498 renal = tested on: A498 renal

| SMILES | GI50 (786-0 renal) [nM] | TGI (786-0 renal) [nM] | GI50 (CAKI-1 renal) [nM] | TGI (CAKI-1 renal) [nM] | GI50 (HS 578T breast) [nM] | TGI (HS 578T breast) [nM] | GI50 (LOX IMVI melanoma) [nM] | TGI (LOX IMVI melanoma) [nM] | GI50 (NCI-H226 lung) [nM] | TGI (NCI-H226 lung) [nM] | GI50 (OVCAR-5 ovarian) [nM] | TGI (OVCAR-5 ovarian) [nM] | GI50 (RPMI-8226 leukemia) [nM] | TGI (RPMI-8226 leukemia) [nM] | GI50 (A498 renal) [nM] | TGI (A498 renal) [nM] |
| --- | --- | --- | --- | --- | --- | --- | --- | --- | --- | --- | --- | --- | --- | --- | --- | --- |
| COc1cnc2c(c1)C(=O)c1c-2n(CCCNC(C)C)c(=O)c2cc([N+](=O)[O-])ccc12 | 35.1 | 156 | 31.4 | 191 | 938 | 3240 | 18.9 | 104 | 65.1 | 798 | 155 | 624 | 48.7 | 738 |  |  |
| COc1cc2c3c(n(CCCN4CCCC(O)C4)c(=O)c2cc1OC)-c1cc2c(cc1C3=O)OCO2 (centres undefined) | 27.7 | 115 | 6.85 | 1360 | 874 | 2110 | 21.3 | 849 | 1420 | 4310 | 931 | 1710 | 96.1 | 447 | 7730 | 25100 |
| CC1=CC(=O)c2ccc(C)cc2C1=O |  | 44300 |  | 14900 |  | > 100000 |  | 17500 |  | 39500 |  | 35400 |  | 6360 |  | 34400 |
| C=C1C(=O)O[C@H]2[C@H]1CC/C(COC(=O)NCc1cc(OC)cc(OC)c1)=C\CC[C@@]1(C)O[C@@H]21 | 1700 | 3450 | 1590 | 3100 | 4120 | 23000 | 549 | 1890 | 2020 | 5490 | 1820 | 4450 | 1800 | 6250 | 2110 | 5800 |

— PubChem BioAssay (NCI)
